Assay [1] concerns the target T1, Sodium- and chloride-dependent glycine transporter 2 (Rattus norvegicus, UniProt P58295).
T1 sequence (P58295 whole entry): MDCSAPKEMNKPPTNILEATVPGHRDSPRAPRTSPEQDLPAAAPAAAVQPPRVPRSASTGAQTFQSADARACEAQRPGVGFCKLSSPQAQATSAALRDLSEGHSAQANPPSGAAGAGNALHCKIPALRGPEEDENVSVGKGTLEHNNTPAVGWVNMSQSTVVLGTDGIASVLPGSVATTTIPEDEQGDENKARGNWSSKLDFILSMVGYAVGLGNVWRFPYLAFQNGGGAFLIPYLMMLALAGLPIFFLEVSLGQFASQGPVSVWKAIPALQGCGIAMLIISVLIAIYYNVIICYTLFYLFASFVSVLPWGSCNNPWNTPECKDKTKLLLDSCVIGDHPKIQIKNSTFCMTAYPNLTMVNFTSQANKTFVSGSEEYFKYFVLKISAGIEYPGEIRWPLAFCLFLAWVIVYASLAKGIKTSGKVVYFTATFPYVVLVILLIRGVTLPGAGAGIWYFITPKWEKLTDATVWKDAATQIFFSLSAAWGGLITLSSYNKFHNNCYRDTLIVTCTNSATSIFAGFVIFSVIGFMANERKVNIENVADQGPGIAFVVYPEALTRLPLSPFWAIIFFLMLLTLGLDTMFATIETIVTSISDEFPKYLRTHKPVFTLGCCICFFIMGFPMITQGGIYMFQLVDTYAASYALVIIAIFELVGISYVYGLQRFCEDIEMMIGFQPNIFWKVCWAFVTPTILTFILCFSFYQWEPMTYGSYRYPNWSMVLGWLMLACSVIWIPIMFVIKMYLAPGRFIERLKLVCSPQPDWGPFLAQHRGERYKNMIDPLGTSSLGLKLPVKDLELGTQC
The assay is described as follows: In vitro glycine reuptake inhibitory activity against glycine transporter type-2 (GlyT-2) transporter cells after incubation at 37 degrees for 30 min in presence of 50 nM [3H]glycine.

In assay [2] the target is T2, Sodium- and chloride-dependent glycine transporter 1 (Rattus norvegicus, UniProt P28572).
T2 sequence (P28572 whole entry): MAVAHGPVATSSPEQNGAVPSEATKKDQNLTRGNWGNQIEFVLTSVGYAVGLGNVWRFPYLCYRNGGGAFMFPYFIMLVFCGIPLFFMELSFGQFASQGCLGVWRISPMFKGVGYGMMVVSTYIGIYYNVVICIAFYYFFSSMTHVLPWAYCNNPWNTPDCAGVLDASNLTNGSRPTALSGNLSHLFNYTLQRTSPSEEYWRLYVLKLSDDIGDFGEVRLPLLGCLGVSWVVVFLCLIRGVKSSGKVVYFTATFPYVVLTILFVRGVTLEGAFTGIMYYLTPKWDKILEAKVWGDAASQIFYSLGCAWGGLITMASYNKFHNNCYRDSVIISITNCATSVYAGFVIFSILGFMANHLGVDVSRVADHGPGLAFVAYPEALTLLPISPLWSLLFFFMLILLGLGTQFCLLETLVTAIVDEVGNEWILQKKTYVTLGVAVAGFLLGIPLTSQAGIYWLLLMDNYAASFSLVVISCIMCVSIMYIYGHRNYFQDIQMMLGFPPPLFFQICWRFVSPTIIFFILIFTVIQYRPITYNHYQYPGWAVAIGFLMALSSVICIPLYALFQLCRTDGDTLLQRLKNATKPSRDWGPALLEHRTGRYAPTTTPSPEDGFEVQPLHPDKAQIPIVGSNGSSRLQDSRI
The assay is described as follows: In vitro glycine reuptake inhibitory activity against glycine transporter type-1 isoform C (GlyT-1c) transporter cells after incubation at 37 degrees for 30 min in presence of 50 nM [3H]glycine.

pIC50: −log10 of the molar value.

As usually defined, the pIC50 is −log10 of the IC50, conventionally taken in molar units.

For `NC(C/C=C(/c1ccc(-c2ccccc2)cc1)c1ccc(F)cc1F)C(=O)O` (stereo not given), the pIC50 in assay [1] was 5.62; in assay [2], 5.47.

Turning to `NC(C/C=C(\c1ccccc1)c1ccc(F)cc1F)C(=O)O` (stereo not given), the pIC50 in assay [1] was 5.19; in assay [2], 5.02.

On to `CC(C)c1ccc(/C(=C\CC(N)C(=O)O)c2ccc(-c3ccccc3)cc2)cc1` (stereo not given), for which the negative logarithm of the IC50 (pIC50) is 5.69 in assay [1] and less than 5.00 in assay [2].

With `NC(C/C=C(\c1cccc(-c2ccccc2)c1)c1ccc(F)cc1F)C(=O)O` (stereo not given), the pIC50 in assay [1] is 5.87; in assay [2], less than 5.00.

`NC(C/C=C(\c1ccsc1)c1ccc(F)cc1F)C(=O)O` (stereo not given): the pIC50 in assay [1] is 5.23; in assay [2] it was less than 5.00.

Regarding `NC(C/C=C(\c1ccc(-c2ccccc2)cc1)c1ccc(F)cc1F)C(=O)O` (stereo not given), the pIC50 in assay [1] is 5.44; in assay [2], less than 5.00.

For `CC(C)(C)c1ccc(/C(=C\CC(N)C(=O)O)c2ccc(F)cc2F)cc1` (stereo not given), the pIC50 in assay [1] is 5.76; in assay [2], less than 5.00.

With `CC(C)c1ccc(/C(=C\CC(N)C(=O)O)c2ccc(F)cc2F)cc1` (stereo not given), the pIC50 in assay [1] was 6.48; in assay [2], less than 5.00.

In the case of `COc1ccc(/C(=C\CC(N)C(=O)O)c2ccc(F)cc2F)cc1` (stereo not given), the values for the negative-log IC50 (pIC50) in assay [1] and in assay [2] were 5.69 and less than 5.00, respectively.

As for `CC(C)c1ccc(/C(=C\CC(N)C(=O)O)c2ccsc2)cc1` (stereo not given), the figures for the pIC50 in assay [1] and in assay [2] were 5.99 and 5.24, respectively.

As to `CC(C)c1ccc(/C(=C/CC(N)C(=O)O)c2ccc(F)cc2F)cc1` (stereo not given), the pIC50 in assay [1] and in assay [2] was less than 5.00 in each case.

For `Cc1ccc(/C(=C\CC(N)C(=O)O)c2ccc(F)cc2F)cc1` (stereo not given), the pIC50 in assay [1] was 5.93; in assay [2] it was 5.02.

Regarding `CC(C)c1ccc(/C(=C\C[C@H](N)C(=O)O)c2ccc(F)cc2F)cc1`, the pIC50 in assay [1] was 6.82.

On to `CCc1ccc(/C(=C\CC(N)C(=O)O)c2ccc(F)cc2F)cc1CC` (stereo not given), for which the pIC50 in assay [1] is 6.18; in assay [2] it was less than 5.00.

In the case of `CC(C)c1ccc(/C(=C\CC(N)C(=O)O)c2ccc(C(C)(C)C)cc2)cc1` (stereo not given), the pIC50 in assay [1] was 5.26; in assay [2], less than 5.00.

For the compound `CC(C)c1ccc(/C(=C\CC(N)C(=O)O)c2ccccc2F)cc1` (stereo not given), the pIC50 in assay [1] is 6.54; in assay [2], 5.10.

For the compound `NC(C/C=C(/c1ccc(F)cc1F)c1ccccc1-c1ccccc1)C(=O)O` (stereo not given), the negative logarithm of the IC50 (pIC50) in assay [1] is 5.56; in assay [2], 5.05.

As for `NC(C/C=C(\c1ccc2ccccc2c1)c1ccc(F)cc1F)C(=O)O` (stereo not given), the results for the pIC50 in assay [1] and in assay [2] were 6.11 and less than 5.00, respectively.

In the case of `CC(C)c1ccc(/C(=C\CC(N)C(=O)O)c2ccc(C#N)cc2)cc1` (stereo not given), the pIC50 in assay [1] was 5.58; in assay [2], less than 5.00.

Regarding `COc1ccc(/C(=C/CC(N)C(=O)O)c2ccc(C(C)C)cc2)cc1` (stereo not given), the figures for the negative logarithm of the IC50 (pIC50) in assay [1] and in assay [2] were 5.94 and less than 5.00, respectively.

Turning to `CCc1ccc(/C(=C\C[C@H](N)C(=O)O)c2ccc(F)cc2F)cc1CC`, the negative-log IC50 (pIC50) in assay [1] was 6.55.

As for `CC(C)c1ccc(C(=CCC(N)C(=O)O)c2ccc(C(C)C)cc2)cc1` (stereo not given), the pIC50 is 5.69 in assay [1] and less than 5.00 in assay [2].

For `CC(C)c1ccc(/C(=C\CC(N)C(=O)O)c2ccccc2)cc1` (stereo not given), the values for the pIC50 in assay [1] and in assay [2] were 6.40 and 5.08, respectively.

Consider `NC(C/C=C(\c1cccnc1)c1ccc(F)cc1F)C(=O)O` (stereo not given), for which the pIC50 in assay [1] and in assay [2] was less than 5.00 throughout.

Take `N#Cc1ccc(/C(=C\CC(N)C(=O)O)c2ccc(F)cc2F)cc1` (stereo not given): the pIC50 in assay [1] and in assay [2] was less than 5.00 each time.

With `CC(C)c1ccc(/C(=C\CC(N)C(=O)O)c2cccnc2)cc1` (stereo not given), the pIC50 was 5.23 in assay [1] and 5.19 in assay [2].

Turning to `CC(C)c1cccc(/C(=C\CC(N)C(=O)O)c2ccc(F)cc2F)c1` (stereo not given), the results for the pIC50 in assay [1] and in assay [2] were 5.80 and less than 5.00, respectively.

As for `N[C@@H](C/C=C(\c1ccc2ccccc2c1)c1ccc(F)cc1F)C(=O)O`, the pIC50 in assay [1] is 6.44.

Consider `CCc1ccc(/C(=C\CC(N)C(=O)O)c2ccc(F)cc2F)cc1` (stereo not given), for which the pIC50 in assay [1] is 6.34; in assay [2], less than 5.00.
